According to publication PMC10900488, “Synthesis and Evaluation of (Bis)benzyltetrahydroisoquinoline Alkaloids as Antiparasitic Agents” (JACS Au, 2024):
Like-named read-outs stand apart in the source and are kept apart here.

Experiments:
[1] = Mammalian toxicity, MTT colorimetric; assay type: cell-based, murine; settings: mouse
Method: Table 1 depicts the antileishmanial (L. infantum) activity evaluation performed against both the amastigote form (evaluated microscopically using an ex vivo intracellular model of mice macrophages) and the promastigote one (using an MTT colorimetric method).[32],[33] The cytotoxicity was evaluated against NCTC cells using an MTT colorimetric method and the selectivity index was determined using the ratio between the CC50 values (NCTC cells) and the IC50 values (amastigotes).[32] […] With respect to the substituents on the C ring, larger, hydrophobic groups conferred greater bioactivity (e.g., 9b–d), whereas small, hydrophilic groups such as a hydroxyl group afford modest to poor bioactivity. […]
Murine conjunctive fibroblasts NCTC clone 929 (ATCC) were maintained in 10% foetal calf serum supplemented RPMI-1640 medium (pH 7.2) at 37 °C in a humidified incubator with 5% CO2. […]
(§1) Biological activity assays […]
NCTC cells (6 × 10^4/well) were added to a 96-well plate. Treatments of the cells with selected compounds (serially diluted 1.5 to 200 μM) was performed in a humidified incubator for 96 h at 37 °C and with 5% CO2.
The MTT colorimetric method was used to determine the 50% cytotoxic concentration (CC50) and the selectivity index (CC50 against NCTC cells/IC50 against amastigotes).15 […]
[…] At 6 h and 24 h post-treatment, a 1 mL aliquot was taken for imaging. The cell cycle experiment was preformed twice independently.
Generation of mNG::RAD51 tagged cell line
The single-stranded DNA-binding protein RAD51, associated with DNA Repair, LmxM.28.0550 was tagged with endogenous fluorescent protein mNeonGreen (mNG) at the N-terminus. […]
Primers for constructs and sgRNA were designed using LeishGEdit (http://www.leishGEdit.net).
PCR was at 94 °C for 5 min, followed by 35 cycles at 94 °C (15 sec), 65 °C (15 sec), 72 °C (2 min) then finally 72 °C (1 min).
PCR was at 94 °C for 30 sec, followed by 30 cycles at 94 °C (30 sec), 60 °C (30 sec), 72 °C (30 sec) then finally 72 °C (2 min). […] Combined PCR products were precipitated for 20 min with 10 μL 3M sodium acetate and 300 μL EtOH, pelleted at 14000 min-1 30 min, washed once with 70% EtOH, re-pelleted and resuspended in […]
Promastigotes (1 × 10^7 cells) were combined with PCR products and transfected using the Amaxa Nucleofector II.17 Electroporation was performed using 2 mm cuvettes on the X-100 program, followed by immediate suspension in pre-warmed M199 medium. Successful transfectants were selected with 20 μg mL-1 Puromycin 15 h after transfection, taking 4 days to reach stable growth in culture. mNG::RAD51 nuclear foci studies mNG::RAD51 promastigotes (5 × 10^6 cells mL-1) in 7 mL of M199 medium were treated with 7 μL o f compound (S)-9a or (S)-9b dissolved in DMSO giving a final concentration of 50 μM. Phleomycin was used as a positive control at a final concentration of 25 μg mL-1. At T = 0, 15, 30, 60 min, and 2, 6, 24 h post-treatment a 0.8 mL aliquot was taken for imaging.

T. cruzi amastigotes = test: Antiamastigote assay (T. cruzi), ex vivo intracellular model using mice macrophages, microscopy; assay type: cell-based, Trypanosoma (T.) cruzi; settings: Trypanosoma cruzi, Peritoneal macrophage, 48 h, ± SD, read-out: T. cruzi IC50 amastigotes
Method: (§2) T. cruzi also assumes several cell morphologies during its lifecycle, which differ between the insect vector and mammalian host. In the latter environment, the parasite transitions between extracellular bloodstream trypomastigotes and intracellular amastigotes; both forms are clinically relevant, particularly during the acute stage of Chagas disease.[34] In this work, antitrypanosomal activity was tested against both the amastigote form (evaluated microscopically using an ex vivo intracellular model using mice macrophages) and the trypomastigote form (using the resazurin in vitro assay).[33],[35] […] In silico predictions of pharmacokinetic profiles were carried out using the SwissADME webtool (see the Supporting Information for details).[36] […]
(§3) […] Cultivation was performed in 2% fetal calf serum supplemented RPMI-1640 medium.
(§4) The trypomastigotes were maintained in a humidified incubator at 37 °C and with 5% CO2. […]
(§5) Peritoneal macrophages were obtained via washing the peritoneal cavity of BALB/c mice with 10% foetal calf serum supplemented RPMI-1640 medium (pH 7.2). The macrophages were maintained in a humidified incubator at 37 °C and with 5% CO2.
as §1
Peritoneal macrophages (1 × 10^5 cells/well) obtained from the peritoneal cavity of BALB/C mice were added to 16-well chambers (NUNC, Thermo Fischer Scientific). The cells were infected with trypomastigotes (10:1 parasites/macrophage) for 2 h. Then treatment of the infected macrophages with selected compounds (serially diluted 1.2 to 100 μM) was performed in a humidified incubator for 48 h at 37 °C and with 5% CO2. The treated cells were fixed on slides using methanol, stained with Giemsa and observed under a light microscope (EVOS M5000, Thermo, USA) with digital image equipment. The infection index was used in order to determine the half inhibitory concentration (IC50) (no. infected macrophages × no. amastigotes / total no.

[2] = system: L. infantum promastigotes; test: Antipromastigote assay (L. infantum), MTT colorimetric; assay type: cell-based, Leishmania (L.) infantum; settings: ± SD, MTT, 48 h; for IC50: Leishmania infantum, read-out: L. infantum IC50 promastigotes
Method: (§6) Table 1 depicts the antileishmanial (L. infantum) activity evaluation performed against both the amastigote form (evaluated microscopically using an ex vivo intracellular model of mice macrophages) and the promastigote one (using an MTT colorimetric method).[32],[33] The cytotoxicity was evaluated against NCTC cells using an MTT colorimetric method and the selectivity index was determined using the ratio between the CC50 values (NCTC cells) and the IC50 values (amastigotes).[32] […] With respect to the substituents on the C ring, larger, hydrophobic groups conferred greater bioactivity (e.g., 9b–d), whereas small, hydrophilic groups such as a hydroxyl group afford modest to poor bioactivity.
(§7) Leishmania (L.) infantum (MHOM/BR/1972/LD) amastigotes were obtained from golden hamsters (Mesocricetus auratus) spleens following 60-70 days of infection via differential centrifugation. The Stauber method was used to determine the number of parasites.12 […]
Biological activity assays
Antipromastigote Assay (L. infantum)
L. infantum promastigotes (1 × 10^6 cells/well) were added to a 96-well plates. Treatment of the cells with selected compounds (serially diluted 0.14 to 200 μM) was performed in M199 medium supplemented with 0.25% hemin and 10% fetal bovine serum for 48 h at 24 °C. The MTT colorimetric assay was used to determine the activity (IC50) of the compounds. Miltefosine was used as a standard drug and untreated promastigotes were used as a negative control. The half inhibitory concentration (IC50) was determined from a sigmoidal regression of the concentration-response curves generated in GraphPadPrism7. […]

T. cruzi trypomastigotes = test: Antitrypomastigote assay (T. cruzi), resazurin; assay type: cell-based, Trypanosoma (T.) cruzi; settings: 24 h, ± SD, resazurin, read-out: T. cruzi IC50 trypomastigotes
Method: as §2, §3, §4, §1
The half inhibitory concentration (IC50) was determined from a sigmoidal regression of the concentration-response curves generated in GraphPadPrism7. […]
Treatment of the cells with selected compounds (serially diluted 1.2 to 150 μM) was performed in a humidified incubator in RPMI 1640 medium for 24 h at 37 °C and with 5% CO2. Resazurin (0.011% in PBS) was added subsequently to verify parasite viability. Benznidazole was used as a standard drug. The optical density was determined at 570 nm using the FilterMax F5 (Molecular Devices). […]

L. infantum amastigotes = test: Antiamastigote assay (L. infantum), ex vivo intracellular model of mice macrophages, microscopy; assay type: cell-based, Leishmania (L.) infantum; settings: Leishmania infantum, Peritoneal macrophage, 96 h, ± SD, intracellular, peritoneal macrophages, read-out: L. infantum IC50 amastigotes
Method: as §6, §7, §5, §1
Antiamastigote Assay (L. infantum)
Peritoneal macrophages (1 × 10^5/well) were added to a 16-well slide chambers (NUNC) and incubated with 5% CO2 at 37 °C. The cells were subsequently infected with L. infantum amastigotes (10:1 amastigotes/macrophage) for 24 h. Treatment of the cells with selected compounds (serially diluted 1.2 to 150 μM) was performed in a humidified incubator for 96 h at 37 °C and with 5% CO2. Untreated cells were used as a negative control and miltefosine was used as a standard drug. The treated cells were fixed on slides with methanol, stained with Giemsa and observed under a light microscope.13 The infection index was used in order to determine the half inhibitory concentration (IC50) (no. infected macrophages × no. amastigotes / total no. […]

| SMILES | IC50 (T. cruzi amastigotes) | IC50 [2] | IC50 (T. cruzi trypomastigotes; Trypanosoma cruzi) | IC50 (L. infantum amastigotes) | IC50 (T. cruzi trypomastigotes) | L. infantum IC50 promastigotes [2] | CC50 at 96 h [1] |
| --- | --- | --- | --- | --- | --- | --- | --- |
| COc1cc2c(cc1OC)[C@@H](Cc1ccc(OC)c(OCc3ccccc3)c1)N(C)CC2 [(R)-9b] |  | 3.3 ± 1.6 µM | 72.3 ± 3 µM | 13.1 ± 0.8 µM |  |  | 57.3 ± 3.3 µM |
| COc1ccc(COc2ccc(C[C@@H]3c4cc(OC)c(OC)cc4CCN3C)cc2Br)cc1 [(R)-9c] | > 100 µM | 3.5 ± 1.2 µM | < 10 µM | > 150 µM | 8.5 ± 3.1 µM |  | 13.4 ± 1.3 µM |
| COc1cc2c(cc1OC)[C@H](Cc1ccc(Oc3cc(C[C@H]4c5cc(OC)c(OC)cc5CCN4C)ccc3O)cc1)N(C)CC2 [(S,S)-13, (+)-dauricine] | 2.3 ± 1.1 µM | 5.5 ± 0.6 µM | 5.1 ± 4.8 µM | > 150 µM |  |  | 15.9 ± 0.8 µM |
| COc1cc2c(cc1OC)[C@@H](Cc1ccc(O)cc1)N(C)CC2 [(R)-10b, (–)-armepavine] | > 100 µM | 4.8 ± 0.8 µM | 107 ± 1.8 µM | > 150 µM |  |  | > 200 µM |
| COc1cc2c(cc1OC)[C@@H](Cc1ccc(Br)cc1)N(C)CC2 [(R)-9a] | 31.8 ± 4.3 µM | 15.5 ± 5.8 µM | 28.3 ± 11.7 µM | 23.4 ± 3.4 µM |  |  | 86.8 ± 2.9 µM |

More lines, main results first:

| IC50 (T. cruzi amastigotes) | IC50 [2] | IC50 (T. cruzi trypomastigotes; Trypanosoma cruzi) | IC50 (L. infantum amastigotes) | IC50 (T. cruzi trypomastigotes) | L. infantum IC50 promastigotes [2] | SMILES | CC50 at 96 h [1] |
| --- | --- | --- | --- | --- | --- | --- | --- |
| > 100 µM | 1.1 ± 0.5 µM | 7.3 ± 1.5 µM | > 150 µM |  |  | COc1ccc(COc2ccc(C[C@@H]3c4cc(OC)c(OC)cc4CCN3C)cc2Oc2ccc(C[C@@H]3c4cc(OC)c(OC)cc4CCN3C)cc2)cc1 [(R,R)-12] | 13.9 ± 1.6 µM |
| > 100 µM | 36.2 ± 5.2 µM | 124 ± 2.3 µM | > 150 µM |  |  | COc1cc2c(cc1OC)[C@H](Cc1ccc(O)cc1)N(C)CC2 [(S)-10b, (+)-armepavine] | > 200 µM |
| > 100 µM | 0.7 ± 0.1 µM | 1.7 ± 0.3 µM | > 150 µM |  | submicromolar | COc1ccc(COc2ccc(C[C@H]3c4cc(OC)c(OC)cc4CCN3C)cc2Oc2ccc(C[C@@H]3c4cc(OC)c(OC)cc4CCN3C)cc2)cc1 [(S,R)-12] | 4.7 ± 1.7 µM |
